{
  "source": "ChEMBL document CHEMBL4602676",
  "about": "“Discovery and Development of 3-(6-Chloropyridine-3-yloxymethyl)-2-azabicyclo[3.1.0]hexane Hydrochloride (SUVN-911): A Novel, Potent, Selective, and Orally Active Neuronal Nicotinic Acetylcholine α4β2 Receptor Antagonist for the Treatment of Depression” (J Med Chem, 2020)",
  "key": {"Bone marrow cell": {"system": "Bone marrow cell", "assay": "Genotoxicity in mouse bone marrow cells assessed as non clastogenic by micronucleus assay", "format": "toxicity, cell-based"}, "Rattus norvegicus [1]": {"system": "Rattus norvegicus", "assay": "Antidepressant activity in Wistar rat assessed as immobility time at 10.0 mg/kg, po measured for 5 mins by forced swim test (reference value: 241.9 to 281.6 sec)", "format": "functional"}, "[2]": {"target": "T1, Organic anion transporter 3 (Homo sapiens, UniProt Q8TCC7)", "T1 sequence (Q8TCC7 whole entry)": "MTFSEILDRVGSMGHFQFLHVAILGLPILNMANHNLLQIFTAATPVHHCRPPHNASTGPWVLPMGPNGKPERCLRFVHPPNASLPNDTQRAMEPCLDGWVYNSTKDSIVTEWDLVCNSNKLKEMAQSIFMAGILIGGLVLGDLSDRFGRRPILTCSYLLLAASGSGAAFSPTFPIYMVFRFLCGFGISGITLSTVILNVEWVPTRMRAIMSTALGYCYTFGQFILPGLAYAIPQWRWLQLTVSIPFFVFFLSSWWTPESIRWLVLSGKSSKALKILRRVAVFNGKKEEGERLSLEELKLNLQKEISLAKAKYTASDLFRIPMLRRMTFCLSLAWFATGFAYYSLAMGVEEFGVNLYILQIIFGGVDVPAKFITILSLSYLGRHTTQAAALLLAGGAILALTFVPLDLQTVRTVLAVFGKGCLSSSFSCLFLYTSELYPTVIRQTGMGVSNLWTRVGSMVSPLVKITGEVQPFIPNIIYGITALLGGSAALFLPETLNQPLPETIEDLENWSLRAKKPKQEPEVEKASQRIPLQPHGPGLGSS", "assay": "Inhibition of OAT3 (unknown origin)"}, "[3]": {"assay": "Clearance in Beagle dog at 1 mg/kg, iv by LC-MS/MS analysis", "format": "ADME, organism-based, Canis lupus familiaris", "settings": "in vivo; call rule not given here"}, "[4]": {"assay": "Apparent permeability in human Caco2 cells", "format": "ADME, cell-based", "settings": "caco-2"}, "[5]": {"assay": "Terminal half life in Beagle dog at 1 mg/kg, iv by LC-MS/MS analysis", "format": "ADME, organism-based, Canis lupus familiaris", "settings": "in vivo, read-out: beta t1/2 (converted)"}, "Cytochrome P450 3A4": {"target": "Cytochrome P450 3A4 (Homo sapiens, UniProt P08684)", "sequence (P08684 whole entry)": "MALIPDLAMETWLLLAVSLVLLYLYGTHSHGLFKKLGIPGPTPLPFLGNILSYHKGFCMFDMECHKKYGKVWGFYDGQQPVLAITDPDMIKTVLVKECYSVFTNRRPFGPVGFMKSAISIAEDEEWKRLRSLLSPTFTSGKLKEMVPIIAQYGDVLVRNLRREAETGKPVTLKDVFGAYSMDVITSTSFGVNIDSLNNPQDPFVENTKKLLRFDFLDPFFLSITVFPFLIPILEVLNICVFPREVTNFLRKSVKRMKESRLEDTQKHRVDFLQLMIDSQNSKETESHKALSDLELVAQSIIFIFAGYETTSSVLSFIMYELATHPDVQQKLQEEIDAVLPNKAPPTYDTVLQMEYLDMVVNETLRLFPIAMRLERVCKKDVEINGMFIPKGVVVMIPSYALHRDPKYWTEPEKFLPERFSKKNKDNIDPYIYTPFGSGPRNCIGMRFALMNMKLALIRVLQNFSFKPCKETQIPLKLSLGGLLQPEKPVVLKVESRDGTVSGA", "assay": "Inhibition of CYP3A4 in human liver microsomes using midazolam as substrate incubated for 2 min in presence of NADPH by LC-MS/MS analysis", "format": "ADME"}, "[6]": {"assay": "Genotoxicity in Salmonella typhimurium TA100 in absence of metabolic activation", "format": "toxicity", "settings": "salmonella enterica subsp. enterica serovar typhimurium"}, "[7]": {"assay": "Toxicity in telemetered Beagle dog assessed as change in body weight up to 25 mg/kg, po", "format": "organism-based, Canis lupus familiaris", "settings": "in vivo"}, "Rattus norvegicus [8]": {"system": "Rattus norvegicus", "assay": "Antidepressant activity in Wistar rat assessed as reduction in immobility at 1 mg/kg, po administrated for 3 days and measured for 5 mins by forced swim test relative to control", "format": "functional", "set-up": "scale not given: the % may be the effect or the level left"}, "[9]": {"assay": "Tmax in Beagle dog at 3 mg/kg, po by LC-MS/MS analysis", "format": "ADME, organism-based, Canis lupus familiaris", "settings": "in vivo"}, "[10]": {"target": "Neuronal acetylcholine receptor; alpha3/beta4 (Homo sapiens, UniProt P30926+P32297)", "sequence (P30926 whole entry)": "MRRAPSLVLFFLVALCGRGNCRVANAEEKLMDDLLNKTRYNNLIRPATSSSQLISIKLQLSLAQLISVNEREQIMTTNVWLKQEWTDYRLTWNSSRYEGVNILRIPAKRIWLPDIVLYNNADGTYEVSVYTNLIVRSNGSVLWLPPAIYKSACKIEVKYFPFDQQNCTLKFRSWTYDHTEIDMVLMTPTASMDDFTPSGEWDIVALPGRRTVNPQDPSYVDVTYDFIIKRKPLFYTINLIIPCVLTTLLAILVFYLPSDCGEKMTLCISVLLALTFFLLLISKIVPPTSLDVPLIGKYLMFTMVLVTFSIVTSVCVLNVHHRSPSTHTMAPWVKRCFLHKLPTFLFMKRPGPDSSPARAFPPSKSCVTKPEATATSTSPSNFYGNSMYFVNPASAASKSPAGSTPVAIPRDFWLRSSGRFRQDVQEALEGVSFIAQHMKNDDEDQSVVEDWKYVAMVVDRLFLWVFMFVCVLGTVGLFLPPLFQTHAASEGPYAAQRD", "sequence (P32297 whole entry)": "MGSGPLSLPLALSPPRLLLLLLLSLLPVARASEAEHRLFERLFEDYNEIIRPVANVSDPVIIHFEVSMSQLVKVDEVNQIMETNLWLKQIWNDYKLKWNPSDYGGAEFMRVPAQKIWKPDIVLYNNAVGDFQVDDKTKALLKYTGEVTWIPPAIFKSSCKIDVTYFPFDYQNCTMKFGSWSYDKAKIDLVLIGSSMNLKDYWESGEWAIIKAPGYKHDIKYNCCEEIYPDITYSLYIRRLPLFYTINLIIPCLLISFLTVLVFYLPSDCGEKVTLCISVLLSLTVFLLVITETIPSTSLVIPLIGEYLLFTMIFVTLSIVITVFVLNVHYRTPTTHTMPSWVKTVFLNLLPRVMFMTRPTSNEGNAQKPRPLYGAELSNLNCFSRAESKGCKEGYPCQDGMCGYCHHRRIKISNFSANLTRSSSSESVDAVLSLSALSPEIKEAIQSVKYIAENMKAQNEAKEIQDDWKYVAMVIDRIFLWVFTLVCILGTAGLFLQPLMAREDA", "assay": "Displacement of [3H]epibatidine from human alpha3beta4 nAChR expressed in IMR32 cell membrane by microbeta scintillation counting method", "format": "cell membranes, IMR-32"}, "[11]": {"target": "Neuronal acetylcholine receptor; alpha4/beta2 (Rattus norvegicus, UniProt P09483+P12390)", "sequence (P09483 whole entry)": "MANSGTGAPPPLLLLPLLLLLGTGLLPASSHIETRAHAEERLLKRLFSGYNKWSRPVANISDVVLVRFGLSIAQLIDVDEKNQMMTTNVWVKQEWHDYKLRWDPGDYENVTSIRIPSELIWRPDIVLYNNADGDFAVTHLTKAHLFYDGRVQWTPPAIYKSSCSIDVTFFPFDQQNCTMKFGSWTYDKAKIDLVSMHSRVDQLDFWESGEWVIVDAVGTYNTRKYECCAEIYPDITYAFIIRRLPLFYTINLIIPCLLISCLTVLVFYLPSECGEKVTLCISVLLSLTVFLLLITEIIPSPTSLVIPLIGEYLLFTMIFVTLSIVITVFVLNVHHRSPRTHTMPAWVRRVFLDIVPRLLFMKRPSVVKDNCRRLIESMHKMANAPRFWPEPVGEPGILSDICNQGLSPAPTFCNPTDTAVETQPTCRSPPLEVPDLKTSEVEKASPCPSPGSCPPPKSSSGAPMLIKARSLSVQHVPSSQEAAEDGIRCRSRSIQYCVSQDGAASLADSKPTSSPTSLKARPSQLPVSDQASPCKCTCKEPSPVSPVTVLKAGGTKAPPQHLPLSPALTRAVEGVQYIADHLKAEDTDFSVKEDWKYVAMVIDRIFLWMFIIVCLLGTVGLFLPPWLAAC", "sequence (P12390 whole entry)": "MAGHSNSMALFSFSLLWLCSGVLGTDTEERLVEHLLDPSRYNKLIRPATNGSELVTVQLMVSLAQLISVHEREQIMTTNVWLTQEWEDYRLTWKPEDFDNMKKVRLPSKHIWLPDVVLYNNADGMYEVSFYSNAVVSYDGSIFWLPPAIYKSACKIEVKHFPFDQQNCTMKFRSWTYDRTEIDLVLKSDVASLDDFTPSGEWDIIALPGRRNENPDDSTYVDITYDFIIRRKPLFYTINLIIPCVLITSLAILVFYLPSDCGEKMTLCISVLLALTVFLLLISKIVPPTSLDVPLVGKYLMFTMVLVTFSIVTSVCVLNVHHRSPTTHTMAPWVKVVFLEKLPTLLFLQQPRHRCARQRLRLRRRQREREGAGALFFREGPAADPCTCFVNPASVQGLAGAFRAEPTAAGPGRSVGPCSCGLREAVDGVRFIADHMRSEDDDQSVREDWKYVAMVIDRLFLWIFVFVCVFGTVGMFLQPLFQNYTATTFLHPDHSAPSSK", "assay": "In vivo receptor occupancy at alpha4beta2 nAChR in Wistar rat assessed as plasma concentration pretreated for 15 mins followed by non radiolabelled ZW-104 tracer treatment and measured after 45 mins by LC-MS/MS analysis", "format": "functional, organism-based"}, "Cytochrome P450 2D6": {"target": "Cytochrome P450 2D6 (Homo sapiens, UniProt P10635)", "sequence (P10635 whole entry)": "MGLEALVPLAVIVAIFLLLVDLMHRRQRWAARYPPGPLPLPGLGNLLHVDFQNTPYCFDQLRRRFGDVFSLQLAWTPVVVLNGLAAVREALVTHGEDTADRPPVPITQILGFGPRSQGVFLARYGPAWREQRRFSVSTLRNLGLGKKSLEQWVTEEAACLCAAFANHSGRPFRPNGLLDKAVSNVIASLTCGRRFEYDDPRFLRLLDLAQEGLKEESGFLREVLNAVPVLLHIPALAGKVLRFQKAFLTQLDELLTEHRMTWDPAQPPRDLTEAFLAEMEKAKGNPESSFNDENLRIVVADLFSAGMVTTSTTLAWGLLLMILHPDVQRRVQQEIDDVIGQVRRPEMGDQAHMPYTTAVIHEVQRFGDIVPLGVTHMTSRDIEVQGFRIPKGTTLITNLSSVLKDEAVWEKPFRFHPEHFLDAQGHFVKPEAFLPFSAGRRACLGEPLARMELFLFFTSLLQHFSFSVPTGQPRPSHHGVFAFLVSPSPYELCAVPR", "assay": "Inhibition of CYP2D6 in human liver microsomes using dextromethorphan as substrate incubated for 12 min in presence of NADPH by LC-MS/MS analysis", "format": "ADME"}, "[12]": {"assay": "Protein binding in rat plasma assessed as unbound fraction at […] incubated for 6 hrs by LC-MS/MS analysis", "format": "ADME, cell-free"}, "[13]": {"assay": "Metabolic stability in rat liver microsomes assessed as compound metabolism incubated for 30 mins in presence of NADPH by LC-MS/MS analysis", "format": "ADME, Microsome", "settings": "read-out: Drug metabolism"}, "[14]": {"assay": "AUC (0 to t) in Beagle dog at 3 mg/kg, po by LC-MS/MS analysis", "format": "ADME, organism-based, Canis lupus familiaris", "settings": "in vivo"}, "[15]": {"target": "T2, Solute carrier family 22 member 2 (Homo sapiens, UniProt O15244)", "T2 sequence (O15244 whole entry)": "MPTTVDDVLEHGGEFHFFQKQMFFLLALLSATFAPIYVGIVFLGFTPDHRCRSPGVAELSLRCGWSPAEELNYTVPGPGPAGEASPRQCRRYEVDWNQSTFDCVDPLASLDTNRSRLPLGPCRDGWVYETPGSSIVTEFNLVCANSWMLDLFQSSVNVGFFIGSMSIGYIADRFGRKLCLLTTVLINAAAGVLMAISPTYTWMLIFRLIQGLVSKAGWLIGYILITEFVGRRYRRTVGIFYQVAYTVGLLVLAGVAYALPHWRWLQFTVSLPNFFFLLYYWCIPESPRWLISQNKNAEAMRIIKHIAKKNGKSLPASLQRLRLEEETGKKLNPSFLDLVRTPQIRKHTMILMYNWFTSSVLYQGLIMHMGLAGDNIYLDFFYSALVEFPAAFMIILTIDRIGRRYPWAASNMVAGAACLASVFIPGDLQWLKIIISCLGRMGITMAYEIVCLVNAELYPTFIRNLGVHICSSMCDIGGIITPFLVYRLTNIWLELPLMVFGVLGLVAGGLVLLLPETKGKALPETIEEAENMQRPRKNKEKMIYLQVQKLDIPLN", "assay": "Inhibition of OCT2 (unknown origin)"}, "[16]": {"assay": "Toxicity in telemetered Beagle dog assessed as change in body temperature up to 25 mg/kg, po", "format": "organism-based, Canis lupus familiaris", "settings": "in vivo"}, "[17]": {"assay": "Genotoxicity in Salmonella typhimurium TA1535 in absence of metabolic activation", "format": "toxicity", "settings": "salmonella enterica subsp. enterica serovar typhimurium"}, "[18]": {"assay": "Genotoxicity in Salmonella typhimurium TA98 in presence of metabolic activation", "format": "toxicity", "settings": "salmonella enterica subsp. enterica serovar typhimurium"}, "Caco-2": {"system": "Caco-2", "assay": "Ratio of apparent permeability across basolateral to apical over apical to basolateral side in human Caco2 cells", "format": "ADME, cell-based"}},
  "note": "pEC50, pIC50, pKi: −log10 of the molar value.",
  "data": [
    {"smiles": "Cl.Clc1ccc(OC[C@@H]2C[C@H]3C[C@H]3N2)cn1", "values": [
      {"measurement": "Activity", "setting": "Bone marrow cell", "result": "Non-Toxic"},
      {"measurement": "Time", "setting": "Rattus norvegicus [1]", "result": 81.5, "unit": "s"},
      {"measurement": "inhibition (INH)", "setting": "[2]", "result": "Not Active"},
      {"measurement": "clearance", "setting": "[3]", "result": 10, "unit": "mL/min/kg"},
      {"measurement": "Papp", "setting": "[4]", "result": 68.8, "unit": "×10⁻⁶ cm/s"},
      {"measurement": "half-life", "setting": "[5]", "result": 1.9, "unit": "h"},
      {"measurement": "pIC50", "setting": "Cytochrome P450 3A4", "result": "< 4.35"},
      {"measurement": "Activity", "setting": "[6]", "result": "Non-Toxic"},
      {"measurement": "Activity", "setting": "[7]", "result": "Non-Toxic"},
      {"measurement": "Activity", "setting": "Rattus norvegicus [8]", "result": 29.35, "unit": "%"},
      {"measurement": "Tmax", "setting": "[9]", "result": 0.3, "unit": "h"},
      {"measurement": "pKi", "setting": "[10]", "result": "< 5.00"},
      {"measurement": "pEC50", "setting": "[11]", "result": 3.59},
      {"measurement": "pIC50", "setting": "Cytochrome P450 2D6", "result": 4.42},
      {"measurement": "fraction unbound at 6 h", "setting": "[12]", "result": 0.31},
      {"measurement": "metabolised at 0.5 h", "setting": "[13]", "result": 32.2, "unit": "%"},
      {"measurement": "AUC(0-t)", "setting": "[14]", "result": 4350, "unit": "ng·h/mL"},
      {"measurement": "inhibition (INH)", "setting": "[15]", "result": "Not Active"},
      {"measurement": "Activity", "setting": "[16]", "result": "Non-Toxic"},
      {"measurement": "Activity", "setting": "[17]", "result": "Non-Toxic"},
      {"measurement": "Activity", "setting": "[18]", "result": "Non-Toxic"},
      {"measurement": "Ratio", "setting": "Caco-2", "result": 0.7}
    ]}
  ]
}
